Key:
xpc [1] = experiment: Test D. Murine animal studies: up-regulation of DNA repair enzyme xpc in dorsal skin; format: in vivo, mouse; conditions: 5% in cream vehicle, topical
Experimental: (§1) The UVA, UVB and Solar Simulated Light (SSL) treatment groups included mice that were left untouched in their cages (no preventative treatment) and mice treated topically on their backs with cream vehicle or AR compounds in the cream vehicle and rubbed with a glove. At 20 minutes post treatment the mice were exposed to 180 mJ/cm^2 of UVA, UVB or SSL equivalent to one hour of noon day summer sunlight. One, four, eight and twenty-four hours post UVA, UVB or SSL exposure, the mice were euthanized by IP Ketamine/Xylazine injection and bled.
(§2) The no UVA, UVB and SSL treatment groups included mice which were left untouched in their cages (no preventative treatment) and mice treated topically on their backs with cream vehicle and AR compounds in cream vehicle as indicated above. After treatment the mice were placed back into their cages, away from sunlight. One, four, eight and twenty-four hours post treatment, the no UVA, UVB and SSL treated mice were euthanized by IP Ketamine/Xylazine injection and bled.
(§3) For the animal groups above, post euthanasia, the dorsal and belly skin was collected and preserved in Zamboni's fixative for future studies. […] The skin was analyzed in-house by immunohistostaining (p53, thymine dimer, XPC and other DNA repair enzymes, collagen, elastin, etc.) and confocal microscopy. […]

[2] = test system: SKH-1 hairless mouse dorsal skin; experiment: Test D. Murine animal studies: thymine dimer formation (DNA damage) in dorsal skin; format: in vivo
Experimental: Test D. Murine Animal Studies
as §1, §2, §3

xpc [3] = experiment: Test E. Human skin study: xpc production
Experimental: Human skin was obtained from the University of Minnesota BioNet Tissue Procurement Facility and stored on ice or in cell culture media until ready to be used. All samples were kept away from sunlight. The skin was cut into pieces and placed in 6-well cell culture plates with a small amount of culture media at the bottom of the well but not enough to cover the top of the tissue. Using a gloved hand, the skin was rubbed with cream vehicle or AR drug in the cream vehicle. At 20 minutes post treatment the skin was exposed to 180 mJ/cm^2 of UVA, UVB or Solar Simulated Light (SSL) equivalent to one hour of noon day summer sunlight. Post UVA, UVB or SSL exposure, additional media was placed in the bottom of the wells and the plates moved to the tissue culture incubator (37° C., 5% CO2). Samples were removed from the incubator and placed in Zamboni's fixative for future studies at one, four, eight and twenty-four hours post UVA, UVB or SSL exposure.
Samples not exposed to UVA, UVB or SSL light were placed into 6-well plates with a small amount of cell culture media but not enough to cover the top of the tissue and stored in the cell culture incubator. […]
All skin samples were analyzed in-house by immunohistostaining (p53, thymine dimer, XPC and other DNA repair enzymes, collagen, elastin, etc.) and confocal microscopy.

Structure (SMILES): C[C@@]12C(=O)NC(=O)N3CCCN4C(=O)NC(=O)[C@]1(C)[C@H]4[C@H]32 [Compound 10]
- xpc immuno-reactivity (xpc antibody) (xpc [1]; no SSL irradiation): significant immuno-reactivity
- thymine dimer immuno-reactivity of skin section ([2]; 5% in cream vehicle, topical, no SSL irradiation, 8 hour time point): completely negative
- xpc levels / xpc staining in non-irradiated human skin (xpc [3]; human skin not exposed to SSL, compared with SSL only control): higher levels of xpc than the SSL only control
- time post application at which xpc stimulation is still evident (xpc [3]; non SSL damaged human skin): ≥ 8 h

Structure (SMILES): CCCC(=O)N(CCn1cc(C)c(=O)[nH]c1=O)CCn1cc(C)c(=O)[nH]c1=O [Compound 24a]
- xpc production in SSL exposed skin (xpc [1]; solar simulated light equivalent to 1 h noon time summer sun light, vs SSL cream-only control): stimulated xpc production
- protection against thymine dimer formation (DNA damage) ([2]; in cream vehicle, topical 20 minutes prior to UVB 6 KJ/m^2, harvested 4 hours after irradiation, vs UV only control): protected against thymine dimer formation

From US9403778B2, “Agents that prevent or repair skin damage” (Regents of the University of Minnesota, priority 2012, dated 2016)
